In PubChem BioAssay (NCI):
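Step 1: Grow cells in 96-well plates. Step 2: Expose to compound for 48 hours at 5 concentrations. Step 3: Interpolate endpoints linearly; if unreached, use highest concentration. At the GI50, growth is halved. At the TGI there is no net growth.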

Assays:
Experiment in all cases: inhibition of tumour cell growth, NCI panel, 48 h
MDA-MB-435 = tested on: MDA-MB-435
SK-OV-3 ovarian = tested on: SK-OV-3 ovarian
HS 578T breast = tested on: HS 578T breast
MOLT-4 leukemia = tested on: MOLT-4 leukemia
SW-620 colon = tested on: SW-620 colon
UACC-62 melanoma = tested on: UACC-62 melanoma
SK-MEL-2 melanoma = tested on: SK-MEL-2 melanoma
CAKI-1 renal = tested on: CAKI-1 renal
CCRF-CEM leukemia = tested on: CCRF-CEM leukemia
A498 renal = tested on: A498 renal
K-562 leukemia = tested on: K-562 leukemia
NCI/ADR-RES ovarian = tested on: NCI/ADR-RES ovarian
DU-145 prostate = tested on: DU-145 prostate
HT29 colon = tested on: HT29 colon
SK-MEL-5 melanoma = tested on: SK-MEL-5 melanoma
TK-10 renal = tested on: TK-10 renal
HL-60(TB) leukemia = tested on: HL-60(TB) leukemia
RXF 393 renal = tested on: RXF 393 renal
SN12C renal = tested on: SN12C renal
MCF7 breast = tested on: MCF7 breast
BT-549 breast = tested on: BT-549 breast
SK-MEL-28 melanoma = tested on: SK-MEL-28 melanoma
COLO 205 colon = tested on: COLO 205 colon
OVCAR-3 ovarian = tested on: OVCAR-3 ovarian
LOX IMVI melanoma = tested on: LOX IMVI melanoma
PC-3 prostate = tested on: PC-3 prostate
HCT-116 colon = tested on: HCT-116 colon
M14 melanoma = tested on: M14 melanoma
SNB-19 CNS = tested on: SNB-19 CNS
SF-268 CNS = tested on: SF-268 CNS
ACHN renal = tested on: ACHN renal
OVCAR-5 ovarian = tested on: OVCAR-5 ovarian
EKVX NSCLC = tested on: EKVX NSCLC
HOP-62 NSCLC = tested on: HOP-62 NSCLC
UACC-257 melanoma = tested on: UACC-257 melanoma
UO-31 renal = tested on: UO-31 renal
NCI-H460 lung = tested on: NCI-H460 lung
U251 CNS = tested on: U251 CNS
OVCAR-8 ovarian = tested on: OVCAR-8 ovarian
SNB-75 CNS = tested on: SNB-75 CNS
HCC-2998 colon = tested on: HCC-2998 colon
T-47D breast = tested on: T-47D breast
SF-539 CNS = tested on: SF-539 CNS
MALME-3M melanoma = tested on: MALME-3M melanoma
OVCAR-4 ovarian = tested on: OVCAR-4 ovarian
RPMI-8226 leukemia = tested on: RPMI-8226 leukemia
IGROV1 ovarian = tested on: IGROV1 ovarian
KM12 colon = tested on: KM12 colon
NCI-H23 lung = tested on: NCI-H23 lung
HCT-15 colon = tested on: HCT-15 colon
786-0 renal = tested on: 786-0 renal
A549 NSCLC = tested on: A549 NSCLC
MDA-MB-231 breast = tested on: MDA-MB-231 breast
NCI-H522 lung = tested on: NCI-H522 lung
SF-295 CNS = tested on: SF-295 CNS

COc1ccc2c(CCCC(c3ccccc3)c3ccccc3)c3[n+](cc2c1OC)CCc1cc2c(cc1-3)OCO2
GI50 (MDA-MB-435): 0.293 µM | TGI (MDA-MB-435): 1.15 µM | GI50 (SK-OV-3 ovarian): 0.303 µM | TGI (SK-OV-3 ovarian): 1.05 µM | GI50 (HS 578T breast): 0.37 µM | TGI (HS 578T breast): 2.1 µM | GI50 (MOLT-4 leukemia): 0.376 µM | TGI (MOLT-4 leukemia): 2.07 µM | GI50 (SW-620 colon): 0.323 µM | TGI (SW-620 colon): 1.39 µM | GI50 (UACC-62 melanoma): 0.243 µM | TGI (UACC-62 melanoma): 1.06 µM | GI50 (SK-MEL-2 melanoma): 0.271 µM | TGI (SK-MEL-2 melanoma): 1.11 µM | GI50 (CAKI-1 renal): 2.27 µM | TGI (CAKI-1 renal): 6.51 µM | GI50 (CCRF-CEM leukemia): 0.453 µM | TGI (CCRF-CEM leukemia): 2.56 µM | GI50 (A498 renal): 0.0969 µM | TGI (A498 renal): 0.996 µM | GI50 (K-562 leukemia): 0.318 µM | TGI (K-562 leukemia): 1.74 µM | GI50 (NCI/ADR-RES ovarian): 4.83 µM | TGI (NCI/ADR-RES ovarian): 38.9 µM | GI50 (DU-145 prostate): 0.47 µM | TGI (DU-145 prostate): 1.72 µM | GI50 (HT29 colon): 0.219 µM | TGI (HT29 colon): 1.17 µM | GI50 (SK-MEL-5 melanoma): 0.149 µM | TGI (SK-MEL-5 melanoma): 0.284 µM | GI50 (TK-10 renal): 0.324 µM | TGI (TK-10 renal): 1.29 µM

CC1SC(c2c(Cl)cccc2Cl)N(NC(=O)c2[nH]c3ccc(F)cc3c2-c2ccccc2)C1=O (configuration not stated)
GI50 (HL-60(TB) leukemia): 67.5 µM | TGI (HL-60(TB) leukemia): > 100 µM | GI50 (MDA-MB-435): 5.01 µM | TGI (MDA-MB-435): > 100 µM | GI50 (SK-OV-3 ovarian): 1.95 µM | TGI (SK-OV-3 ovarian): 4.2 µM | GI50 (RXF 393 renal): 1.73 µM | TGI (RXF 393 renal): 4.12 µM | GI50 (HS 578T breast): 1.93 µM | TGI (HS 578T breast): 4.38 µM | GI50 (SN12C renal): 2.26 µM | TGI (SN12C renal): 5.86 µM | GI50 (MCF7 breast): 3.18 µM | TGI (MCF7 breast): 11.5 µM | GI50 (BT-549 breast): 5.04 µM | TGI (BT-549 breast): 28.5 µM | GI50 (SK-MEL-28 melanoma): 3.57 µM | TGI (SK-MEL-28 melanoma): 17.2 µM | GI50 (COLO 205 colon): 2.69 µM | TGI (COLO 205 colon): 7.48 µM | GI50 (MOLT-4 leukemia): 13.2 µM | TGI (MOLT-4 leukemia): 64.7 µM | GI50 (OVCAR-3 ovarian): 1.76 µM | TGI (OVCAR-3 ovarian): 3.45 µM | GI50 (LOX IMVI melanoma): 1.71 µM | TGI (LOX IMVI melanoma): 3.35 µM | GI50 (PC-3 prostate): 1.98 µM | TGI (PC-3 prostate): 4.46 µM | GI50 (HCT-116 colon): 1.71 µM | TGI (HCT-116 colon): 3.08 µM | GI50 (M14 melanoma): 3.96 µM | TGI (M14 melanoma): 30.2 µM | GI50 (SW-620 colon): 3.19 µM | TGI (SW-620 colon): 11.2 µM | GI50 (SNB-19 CNS): 2.17 µM | TGI (SNB-19 CNS): 5.82 µM | GI50 (SF-268 CNS): 1.97 µM | TGI (SF-268 CNS): 4.89 µM | GI50 (ACHN renal): 2.82 µM | TGI (ACHN renal): 8.35 µM | GI50 (UACC-62 melanoma): 4 µM | TGI (UACC-62 melanoma): 32.5 µM | GI50 (OVCAR-5 ovarian): 3.06 µM | TGI (OVCAR-5 ovarian): 21.3 µM | GI50 (EKVX NSCLC): 2.33 µM | TGI (EKVX NSCLC): 10.8 µM | GI50 (HOP-62 NSCLC): 1.79 µM | TGI (HOP-62 NSCLC): 3.33 µM | GI50 (SK-MEL-2 melanoma): 3.29 µM | TGI (SK-MEL-2 melanoma): 15.6 µM | GI50 (UACC-257 melanoma): 4.69 µM | TGI (UACC-257 melanoma): 44 µM | GI50 (CAKI-1 renal): 1.83 µM | TGI (CAKI-1 renal): 4.85 µM | GI50 (UO-31 renal): 2.13 µM | TGI (UO-31 renal): 8.61 µM | GI50 (CCRF-CEM leukemia): 4.79 µM | TGI (CCRF-CEM leukemia): 42.5 µM | GI50 (NCI-H460 lung): 2.03 µM | TGI (NCI-H460 lung): 3.9 µM | GI50 (A498 renal): 2.33 µM | TGI (A498 renal): 9.46 µM | GI50 (U251 CNS): 1.78 µM | TGI (U251 CNS): 3.51 µM | GI50 (OVCAR-8 ovarian): 1.7 µM | TGI (OVCAR-8 ovarian): 3.39 µM | GI50 (SNB-75 CNS): 1.43 µM | TGI (SNB-75 CNS): 3.27 µM | GI50 (HCC-2998 colon): 25 µM | TGI (HCC-2998 colon): > 100 µM | GI50 (T-47D breast): 2.61 µM | TGI (T-47D breast): 14 µM | GI50 (SF-539 CNS): 3.7 µM | TGI (SF-539 CNS): 11.9 µM | GI50 (K-562 leukemia): 21.9 µM | TGI (K-562 leukemia): > 100 µM | GI50 (MALME-3M melanoma): 1.43 µM | TGI (MALME-3M melanoma): 4.35 µM | GI50 (NCI/ADR-RES ovarian): 2.05 µM | TGI (NCI/ADR-RES ovarian): 4.8 µM | GI50 (DU-145 prostate): 1.92 µM | TGI (DU-145 prostate): 4.36 µM | GI50 (HT29 colon): 2.96 µM | TGI (HT29 colon): 10.8 µM | GI50 (OVCAR-4 ovarian): 1.69 µM | TGI (OVCAR-4 ovarian): 3.4 µM | GI50 (RPMI-8226 leukemia): 5.59 µM | TGI (RPMI-8226 leukemia): > 100 µM | GI50 (IGROV1 ovarian): 2.37 µM | TGI (IGROV1 ovarian): 7.9 µM | GI50 (KM12 colon): 3.53 µM | TGI (KM12 colon): 20.9 µM | GI50 (SK-MEL-5 melanoma): 2.72 µM | TGI (SK-MEL-5 melanoma): 11.9 µM | GI50 (NCI-H23 lung): 2.73 µM | TGI (NCI-H23 lung): 10.1 µM | GI50 (HCT-15 colon): 3.73 µM | TGI (HCT-15 colon): 22.2 µM | GI50 (786-0 renal): 2.14 µM | TGI (786-0 renal): 4.44 µM | GI50 (A549 NSCLC): 1.68 µM | TGI (A549 NSCLC): 3.16 µM | GI50 (MDA-MB-231 breast): 2.13 µM | TGI (MDA-MB-231 breast): 4.28 µM | GI50 (TK-10 renal): 2.56 µM | TGI (TK-10 renal): 7.12 µM | GI50 (NCI-H522 lung): 1.87 µM | TGI (NCI-H522 lung): 5.83 µM | GI50 (SF-295 CNS): 1.9 µM | TGI (SF-295 CNS): 3.71 µM
